We go through 14 molecules from patent US20100041696A1, “Compounds” (priority 2006, published 2010).

This assay addresses T1, SCD (stearoyl-CoA desaturase), SCD-containing rat microsomes (Rattus norvegicus, UniProt P07308).
T1 construct: SCD-containing rat microsomes (2 μg protein); from tissue
T1 sequence (P07308 1-358): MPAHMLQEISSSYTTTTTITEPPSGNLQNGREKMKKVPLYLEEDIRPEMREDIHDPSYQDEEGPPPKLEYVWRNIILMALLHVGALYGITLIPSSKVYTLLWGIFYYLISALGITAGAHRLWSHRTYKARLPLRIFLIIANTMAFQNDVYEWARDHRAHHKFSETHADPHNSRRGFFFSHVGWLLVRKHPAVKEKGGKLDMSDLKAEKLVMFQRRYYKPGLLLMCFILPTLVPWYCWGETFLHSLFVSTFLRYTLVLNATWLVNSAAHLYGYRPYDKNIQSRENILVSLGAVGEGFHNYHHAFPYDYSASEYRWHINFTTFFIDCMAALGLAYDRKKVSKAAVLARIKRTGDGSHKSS
Put plainly: in vitro assay for SCD activity based on production of [3H]H2O from [9,10-3H] stearoyl Coenzyme A. It counts as biochemical. The following applies: SCD-containing rat microsomes (2 μg protein), substrate [9,10-3H] stearoyl Coenzyme A 1 μM, 5 minutes preincubation, 6 minutes incubation; read-out: average pIC50 value, in vitro assay for SCD activity (converted). On the procedure: The compounds of the present invention may be analysed in vitro for SCD activity using an assay based on the production of [^3H]H2O, which is released during the enzyme-catalyzed generation of the monounsaturated fatty acyl CoA product. The assay is performed in a 96-well filtration plates. The titrated substrate used in the assay is the [9,10-^3H] stearoyl Coenzyme A. After incubation for 6 minutes of SCD-containing rat microsomes (2 μg protein) and substrate (1 μM), the labelled fatty acid acyl-CoA species and microsomes are absorbed with charcoal and separated from [^3H]H2O by centrifugation. The formation of [^3H]H2O is used as a measure of SCD activity. Compounds at concentrations starting at 10 μM to 0.1 nM or vehicle (DMSO) are preincubated for 5 minutes with the microsomes before addition of the substrate. The concentration-responses are fitted with sigmoidal curves to obtain IC50 values.

Where a name gives a salt, the structure may show the parent alone.

Consider `CC(C)COc1ccc(Cl)cc1Cn1cc(NC(=O)c2ccc3c(c2)CCN(C(=O)OC(C)(C)C)C3)cn1` [1,1-dimethylethyl 6-({[1-({5-chloro-2-[(2-methylpropyl)oxy]phenyl}methyl)-1H-pyrazol-4-yl]amino}carbonyl)-3,4-dihydro-2(1H)-isoquinolinecarboxylate], for which the IC50 is over 10 µM.

`CC(C)c1ccc(Cn2cc(NC(=O)c3ccc4c(c3)CCN(C(=O)OC(C)(C)C)C4)cn2)cc1` [1,1-dimethylethyl 6-{[(1-{[4-(1-methylethyl)phenyl]methyl}-1H-pyrazol-4-yl)amino]carbonyl}-3,4-dihydro-2(1H)-isoquinolinecarboxylate]: the IC50 is over 10 µM.

On to `CC(C)c1nn(Cc2ccc(Cl)c(Cl)c2)cc1C(=O)Nc1ccc2c(c1)CCNC2` [1-[(3,4-dichlorophenyl)methyl]-3-(1-methylethyl)-N-(1,2,3,4-tetrahydro-6-isoquinolinyl)-1H-pyrazole-4-carboxamide hydrochloride], for which the IC50 was over 10 µM. Take `CC(C)c1c(C(=O)Nc2ccc3c(c2)CCNC3)cnn1Cc1ccc(Cl)c(Cl)c1` [1-[(3,4-dichlorophenyl)methyl]-5-(1-methylethyl)-N-(1,2,3,4-tetrahydro-6-isoquinolinyl)-1H-pyrazole-4-carboxamide hydrochloride]: the IC50 is over 10 µM. With `O=C(Nc1ccc2c(c1)CCNC2)c1cnn(Cc2ccc(Cl)cc2)c1` [1-[(4-chlorophenyl)methyl]-N-(1,2,3,4-tetrahydro-6-isoquinolinyl)-1H-pyrazole-4-carboxamide hydrochloride], the IC50 was 3.16 to 10 µM. `O=C(Nc1cnn(Cc2ccccc2Cl)c1)c1ccc2c(c1)CCNC2` [Example 8, N-{1-[(2-chlorophenyl)methyl]-1H-pyrazol-4-yl}-1,2,3,4-tetrahydro-6-isoquinolinecarboxamide]: the IC50 is 3.16 to 10 µM. In the case of `Cc1ccc(Cn2cc(NC(=O)c3ccc4c(c3)CCNC4)cn2)cc1` [Example 14, N-{1-[(4-methylphenyl)methyl]-1H-pyrazol-4-yl}-1,2,3,4-tetrahydro-6-isoquinolinecarboxamide], the IC50 was 3.16 to 10 µM. As to `O=C(Nc1ccc2c(c1)CCNC2)c1cnn(Cc2ccc(C(F)(F)F)cc2)c1` [N-(1,2,3,4-tetrahydro-6-isoquinolinyl)-1-{[4-(trifluoromethyl)phenyl]methyl}-1H-pyrazole-4-carboxamide hydrochloride], the IC50 is over 10 µM. Under `O=C(Nc1cnn(Cc2ccccc2C(F)(F)F)c1)c1ccc2c(c1)CCNC2` [N-(1-{[2-(trifluoromethyl)phenyl]methyl}-1H-pyrazol-4-yl)-1,2,3,4-tetrahydro-6-isoquinolinecarboxamide hydrochloride] stands 3.16 to 10 µM; under `CC(C)c1ccc(Cn2cc(NC(=O)c3ccc4c(c3)CCNC4)cn2)cc1` [N-(1-{[4-(1-methylethyl)phenyl]methyl}-1H-pyrazol-4-yl)-1,2,3,4-tetrahydro-6-isoquinolinecarboxamide hydrochloride], over 10 µM. In the case of `O=C(Nc1cnn(COc2ccc(Cl)cc2)c1)c1ccc2c(c1)CCNC2` [N-(1-{[(4-chlorophenyl)oxy]methyl}-1H-pyrazol-4-yl)-1,2,3,4-tetrahydro-6-isoquinolinecarboxamide hydrochloride], the IC50 is 3.16 to 10 µM. Regarding `O=C(Nc1cnn(Cc2ccccc2)c1)c1ccc2c(c1)CCNC2` [N-[1-(phenylmethyl)-1H-pyrazol-4-yl]-1,2,3,4-tetrahydro-6-isoquinolinecarboxamide hydrochloride], the IC50 is 3.16 to 10 µM. Under `CC(C)COc1ccc(Cl)cc1Cn1cc(NC(=O)c2ccc3c(c2)CCNC3)cn1` [N-[1-({5-chloro-2-[(2-methylpropyl)oxy]phenyl}methyl)-1H-pyrazol-4-yl]-1,2,3,4-tetrahydro-6-isoquinolinecarboxamide hydrochloride] stands over 10 µM. The figure for `N#Cc1cccc(Cn2cc(NC(=O)c3ccc4c(c3)CCNC4)cn2)c1` [N-{1-[(3-cyanophenyl)methyl]-1H-pyrazol-4-yl}-1,2,3,4-tetrahydro-6-isoquinolinecarboxamide hydrochloride] is 3.16 to 10 µM.
